Tests used:
Format in all cases: in vivo
[1] = system: horseweed (Erigeron canadensis); assay: Test A postemergence application, visual injury rating 0-100
In short: (§1)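 Compound in a non-phytotoxic, surfactant-containing solvent is applied either as a directed soil spray before seedlings emerge or onto emerged plants 2-10 cm tall; pots hold a loam-sand blend. Plants grow 10 days under greenhouse conditions and are rated by eye against untreated controls (0 no effect, 100 complete control).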

[2] = system: kochia (Bassia scoparia); assay: as above
In short: as §1

[3] = system: green foxtail (Setaria viridis); assay: as above
In short: as §1

[4] = system: corn (Zea mays); assay: as above
In short: as §1

[5] = system: wheat (Triticum aestivum); assay: as above
In short: as §1

[6] = system: soybean (Glycine max); assay: as above
In short: as §1

[7] = system: palmer (palmer amaranth, palmer pigweed, Amaranthus palmeri); assay: as above
In short: as §1

[8] = system: oat, wild (wild oat, Avena fatua); assay: as above
In short: as §1

[9] = system: barnyardgrass (Echinochloa crus-galli); assay: as above
In short: as §1

[10] = system: blackgrass (Alopecurus myosuroides); assay: as above
In short: as §1

[11] = system: ryegrass, Italian (italian ryegrass, Lolium multiflorum); assay: as above
In short: as §1

[12] = system: galium (catchweed bedstraw, Galium aparine); assay: as above
In short: as §1

[13] = system: ragweed (common ragweed, Ambrosia artemisiifolia); assay: as above
In short: as §1

[14] = system: kochia (Bassia scoparia); assay: Test A preemergence soil spray, visual injury rating 0-100; details: 16 g ai/ha, 0 to 100 scale, 10 days
In short: as §1

[15] = system: green foxtail (Setaria viridis); assay: as above; details: 10 days
In short: as §1

[16] = system: corn (Zea mays); assay: as above; details: 10 days
In short: as §1

[17] = system: wheat (Triticum aestivum); assay: as above; details: 10 days
In short: as §1

[18] = system: soybean (Glycine max); assay: as above; details: 10 days
In short: as §1

[19] = system: palmer (palmer amaranth, palmer pigweed, Amaranthus palmeri); assay: as above; details: 10 days
In short: as §1

[20] = system: oat, wild (wild oat, Avena fatua); assay: as above; details: 10 days
In short: as §1

[21] = system: barnyardgrass (Echinochloa crus-galli); assay: as above; details: 10 days
In short: as §1

[22] = system: blackgrass (Alopecurus myosuroides); assay: as above; details: 10 days
In short: as §1

[23] = system: ryegrass, Italian (italian ryegrass, Lolium multiflorum); assay: as above; details: 10 days
In short: as §1

[24] = system: ragweed (common ragweed, Ambrosia artemisiifolia); assay: as above; details: 10 days
In short: as §1

[25] = system: barnyardgrass (Echinochloa crusgalli); assay: Test B flooded paddy test, visual plant response rating 0-100; details: 250 g ai/ha, Flood, applied to paddy water, evaluated after 13 days
In short: (§2)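 Compounds applied to standing paddy water (3 cm above soil, maintained for the test duration) on 2-leaf-stage plants; visual rating vs controls at 13 days, greenhouse.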

[26] = system: sedge, umbrella (small-flower umbrella sedge, Cyperus difformis); assay: as above; details: 250 g ai/ha, Flood, applied to paddy water, evaluated after 13 days
In short: as §2

[27] = system: ducksalad (Heteranthera limosa); assay: as above; details: 250 g ai/ha, Flood, applied to paddy water, evaluated after 13 days
In short: as §2

[28] = system: rice (Oryza sativa); assay: as above; details: 250 g ai/ha, Flood, applied to paddy water, evaluated after 13 days
In short: as §2

[29] = 62 g ai/ha, postemergence, 10 days, 0 = no effect, 100 = complete control
[30] = Postemergence, 16 g ai/ha, greenhouse 10 days, 0 no effect, 100 complete control
[31] = 62 g ai/ha, 0 = no effect, 100 = complete control

Cc1cc(C)cc(N2CC(C)(C(=O)NC3C=CC(C(=O)O)C3)OC2=O)c1 (stereo not drawn) [Compound 126]
70: Galium plant response rating (0 to 100 scale) [12, 30]
5: Plant response rating, Rice (0 to 100 scale, 0 is no effect and 100 is complete control) [28]
90: Wheat plant response rating (0-100) [5, 29] | Oat, Wild plant response rating (0-100) [8, 29] | Barnyardgrass plant response rating (0-100) [9, 29] | Blackgrass plant response rating (0-100) [10, 29] | Wheat plant response rating (0-100) [17, 31] | Barnyardgrass plant response rating (0-100) [21, 31]
40: Corn plant response rating (0-100) [16, 31] | Blackgrass plant response rating (0-100) [22, 31] | Ryegrass, Italian plant response rating (0-100) [23, 31]
50: Barnyardgrass plant response rating (0 to 100 scale) [9, 30] | Pigweed, Palmer plant response rating (0-100) [19, 31]
20: Horseweed plant response rating (0-100) [1, 29] | Corn plant response rating (0 to 100 scale) [4, 30] | Wheat plant response rating ([17]; 16 g ai/ha, 0 to 100 scale) | Pigweed, Palmer plant response rating ([19]; 16 g ai/ha, 0 to 100 scale)
25: Plant response rating, Barnyardgrass (0 to 100 scale, 0 is no effect and 100 is complete control) [25]
10: Pigweed, Palmer plant response rating (0 to 100 scale) [7, 30] | Foxtail, Green plant response rating (0-100) [15, 31] | Barnyardgrass plant response rating ([21]; 16 g ai/ha, 0 to 100 scale)
0: Horseweed plant response rating (0 to 100 scale) [1, 30] | Kochia plant response rating (0 to 100 scale) [2, 30] | Foxtail, Green plant response rating (0 to 100 scale) [3, 30] | Soybean plant response rating (0 to 100 scale) [6, 30] | Ragweed plant response rating (0 to 100 scale) [13, 30] | Kochia plant response rating [14] | Foxtail, Green plant response rating ([15]; 16 g ai/ha, 0 to 100 scale) | Corn plant response rating ([16]; 16 g ai/ha, 0 to 100 scale) | Soybean plant response rating ([18]; 16 g ai/ha, 0 to 100 scale) | Soybean plant response rating (0-100) [18, 31] | Oat, Wild plant response rating ([20]; 16 g ai/ha, 0 to 100 scale) | Blackgrass plant response rating ([22]; 16 g ai/ha, 0 to 100 scale) | Ryegrass, Italian plant response rating ([23]; 16 g ai/ha, 0 to 100 scale) | Ragweed plant response rating ([24]; 16 g ai/ha, 0 to 100 scale) | Ragweed plant response rating (0-100) [24, 31]
55: Plant response rating, Ducksalad (0 to 100 scale, 0 is no effect and 100 is complete control) [27]
35: Plant response rating, Sedge, Umbrella (0 to 100 scale, 0 is no effect and 100 is complete control) [26]
80: Galium plant response rating (0-100) [12, 29]
100: Corn plant response rating (0-100) [4, 29]
60: Soybean plant response rating (0-100) [6, 29] | Blackgrass plant response rating (0 to 100 scale) [10, 30] | Ryegrass, Italian plant response rating (0-100) [11, 29]
30: Kochia plant response rating (0-100) [2, 29] | Foxtail, Green plant response rating (0-100) [3, 29] | Wheat plant response rating (0 to 100 scale) [5, 30] | Pigweed, Palmer plant response rating (0-100) [7, 29] | Oat, Wild plant response rating (0 to 100 scale) [8, 30] | Ryegrass, Italian plant response rating (0 to 100 scale) [11, 30] | Ragweed plant response rating (0-100) [13, 29] | Oat, Wild plant response rating (0-100) [20, 31]

Source: patent publication US20260285850A1, “SUBSTITUTED OXAZOLIDINONES AND IMIDAZOLINONES AS HERBICIDES” (FMC CORPORATION, priority 2023, published 2026)
